US20080075660A1, “Near infrared-fluorescence using phospholipid ether analog dyes in endoscopic applications” (Cellectar, LLC, priority 2006, published 2008)

How the values were obtained:
[1] = system: malignant tumors; settings: radiolabeled versions (such as I-124), known from earlier studies; cited from earlier work
[2] = system: colon tumors; test: microPET/microCT imaging of I-124-NM404 in colon tumor model in rats (PIRC rat); type: in vivo
Excerpt: FIG. 1 provides a 2D microCT projection of an excised PIRC rat colon filled with 2% barium (A) and ^124I-NM404 microPET image in a PIRC Rat (B) and the fused microPET/microCT image (C). Fiducial marker (M), Tumor (arrow).
Multiple tumors have been detected protruding into the colon lumen.

Structure (SMILES): C[N+](C)(C)CCOP(=O)([O-])OCCCCCCCCCCCCCCCCCCc1ccc(I)cc1 [NM404, 18-(p-Iodophenyl)octadecyl phosphocholine]
- accumulation in malignant versus benign tumors [1]: accumulate in malignant tumors, but not in benign tumors such as polyps
- accumulation in excised colon on microPET image ([2]; PIRC rat colon with multiple tumors, microPET): one area of accumulation only
- accumulation in colon tumors, fused microCT/microPET image ([2]; adenocarcinoma versus other colon tumors): seen only in a tumor that later proved to be an adenocarcinoma
- accumulation in benign polyps ([2]; all other colon tumors, which turned out to be benign polyps): did not show accumulation
